Measurements from patent publication US9062028B2, “Bicyclic nitrogen containing heteroaryl TGR5 receptor modulators” (Bristol-Myers Squibb Company, priority 2011, dated 2015).
Where a name gives a salt, the structure may show the parent alone.

Target: T1, recombinant human TGR5 (Homo sapiens, UniProt Q8TDU6)
T1 construct: expressed in transfected cells
T1 sequence (Q8TDU6 1-330): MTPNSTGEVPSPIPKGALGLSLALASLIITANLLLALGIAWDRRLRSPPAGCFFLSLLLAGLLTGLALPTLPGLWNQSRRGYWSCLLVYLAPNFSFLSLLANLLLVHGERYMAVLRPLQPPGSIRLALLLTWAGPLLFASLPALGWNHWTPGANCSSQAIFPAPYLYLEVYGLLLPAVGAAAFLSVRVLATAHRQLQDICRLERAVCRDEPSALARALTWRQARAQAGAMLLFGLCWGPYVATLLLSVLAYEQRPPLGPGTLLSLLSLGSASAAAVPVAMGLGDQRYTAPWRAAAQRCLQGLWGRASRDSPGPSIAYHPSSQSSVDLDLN
Assay: cAMP assay (cAMP accumulation, HTRF) in CHOK1 cells stably expressing TGR5
Assay type: cell-based
Conditions: CHOK1 cells stably expressing human TGR5, 30 minutes at RT, 1% DMSO
Protocol: The in vitro modulation of recombinant human TGR5 was determined as follows.
A human TGR5 expression construct of human TGR5 was integrated into the genome of a CHOK1 cell line (Invitrogen). Once a stable CHOK1 cell line was generated, the cells were incubated for 5-10 minutes in culture medium consisting of F-12 (Invitrogen#11765-047) supplemented with 10% fetal bovine serum.
On the day of the cAMP accumulation assay, cells stably expressing the […] TGR5 construct were centrifuged at 1000 rpm for 5 minutes. The medium was aspirated and the cells were resuspended in 5 mL of assay buffer (phosphate-buffered saline with Ca^2+ and Mg^2+, Invitrogen#14040). The cells were counted using 1:2 dilution and then adjusted to 0.4-0.5×10^6 cells/mL in assay buffer, if necessary. Isobutylmethylxanthine (IBMX, Sigma#I5879) was added via a 1:5000 dilution to make a 0.1 mM final concentration and then 10 μL of the media were transferred to each well of a 384 well poly-D-lysine coated solid white plate (BD #35-6661) pre-dotted with 100 nL of with the desired concentration of compound added from a concentrated stock dissolved in dimethyl sulfoxide (DMSO) to give a final concentration of 1% DMSO in the assay. The plates were covered and incubated for 30 minutes at RT. cAMP accumulation was measured using the CisBio homogeneous time resolved fluorescence (HTRF) assay kit (#62AM2PEC) following the manufacturer's protocol. Briefly, 5 μl each of the cAMP-HTRF fluorescence detection reagents were added to each well, and the samples were incubated for at least one hour at room temperature. Fluorescence was excited at 320 nm and measured at 665 and 620 nm using the Envision instrument (Perkin Elmer), the fluorescence ratio of 665/620 was calculated and converted to nanomolar concentrations of cAMP in each well by interpolation from a cAMP standard curve. The concentration-response curves and EC50 values were calculated with a four parameter logistic curve fit equation utilizing Excel/XLfit software (Microsoft and IDBS). The EC50 value was calculated as the concentration of agonist which increased the cAMP concentration to a value halfway between the baseline and the maximum.

Compared with `Cc1cccc(OCCCC(=O)N2CCCc3c(-c4cnn(CCNC(=O)CC(=O)O)c4)cccc32)c1C` [Example 110J, 3-(2-(4-(1-(4-(2,3-Dimethylphenoxy)butanoyl)-1,2,3,4-tetrahydroquinolin-5-yl)-1H-pyrazol-1-yl)ethylamino)-3-oxopropanoic acid], `Cc1cccc(OCCCC(=O)N2CCCc3c(-c4cnn(Cc5cccc(NC(=O)NCC(=O)O)c5)c4)cccc32)c1C` [Example 83, 2-(3-(3-((4-(1-(4-(2,3-Dimethylphenoxy)butanoyl)-1,2,3,4-tetrahydroquinolin-5-yl)-1H-pyrazol-1-yl)methyl)phenyl)ureido)acetic acid] is 31-fold lower in EC50: 3300 nM for the first, 107 nM for the second.

Going from `Cc1cccc(OCCCC(=O)N2CCCc3c(-c4cccc(COC(=O)N[C@@H](Cc5cncn5C)C(=O)O)c4)cccc32)c1C` [Example 316, (S)-2-((3-(1-(4-(2,3-Dimethylphenoxy)butanoyl)-1,2,3,4-tetrahydroquinolin-5-yl)benzyloxy)carbonylamino)-3-(1-methyl-1H-imidazol-5-yl) propanoic acid] to `Cc1cccc(OCCCC(=O)N2CCCc3c(-c4cccc(COC(=O)N[C@@H](CC(=O)O)C(=O)O)c4)cccc32)c1C` [Example 268, (S)-2-((3-(1-(4-(2,3-Dimethylphenoxy)butanoyl)-1,2,3,4-tetrahydroquinolin-5-yl)benzyloxy)carbonylamino)succinic acid], the EC50 rises from 638 nM to 5020 nM (7.9-fold).

Compared with `Cc1cccc(OCCCC(=O)N2CCCc3c(-c4cnn(Cc5ccc[n+](CC(=O)O)c5)c4)cccc32)c1C` [Example 466, 1-(Carboxymethyl)-3-((4-(1-(4-(2,3-dimethylphenoxy)butanoyl)-1,2,3,4-tetrahydroquinolin-5-yl)-1H-pyrazol-1-yl)methyl)pyridinium, TFA salt], `Cc1cccc(OCCCC(=O)N2CCCc3c(-c4cnn(Cc5cccc(C(=O)N(C)[C@@H](CC(=O)O)C(=O)O)c5)c4)cccc32)c1C` [Example 481, (S)-2-(3-((4-(1-(4-(2,3-Dimethylphenoxy)butanoyl)-1,2,3,4-tetrahydroquinolin-5-yl)-1H-pyrazol-1-yl)methyl)-N-methylbenzamido)succinic acid] is 2.6-fold lower in EC50: 3930 nM for the first, 1530 nM for the second. The second is the more potent here.

`Cc1cccc(OCCCC(=O)N2CCCc3c(-c4cccc(COC(=O)NCCC(=O)O)c4)cccc32)c1C` [Example 43, 3-((3-(1-(4-(2,3-Dimethylphenoxy)butanoyl)-1,2,3,4-tetrahydroquinolin-5-yl)benzyloxy)carbonylamino)propanoic acid] and `Cc1cccc(OCCCC(=O)N2CCCc3c(-c4cn(Cc5cccc(C(=O)O)c5)nc4C)cccc32)c1C` [Example 32G, 3-((4-(1-(4-(2,3-Dimethylphenoxy)butanoyl)-1,2,3,4-tetrahydroquinolin-5-yl)-3-methyl-1H-pyrazol-1-yl)methyl)benzoic acid] are within 1.5-fold of each other in EC50: 611 nM for the first, 636 nM for the second.

Going from `Cc1c(Cl)cccc1OCCCC(=O)N1CCSc2c(-c3cnn(Cc4cccc(C(=O)NCC(=O)O)c4)c3)cccc21` [Example 566, 2-(3-((4-(4-(4-(3-Chloro-2-methylphenoxy)butanoyl)-3,4-dihydro-2H-benzo[b][1,4]thiazin-8-yl)-1H-pyrazol-1-yl)methyl)benzamido)acetic acid] to `Cc1c(Cl)cccc1OCCCC(=O)N1CC2CC2c2c(-c3cnn(Cc4cccc(C(=O)NCS(=O)(=O)O)c4)c3)cccc21` (stereo not drawn) [Example 222, (3-((4-(3-(4-(3-Chloro-2-methylphenoxy)butanoyl)-1a,2,3,7b-tetrahydro-1H-cyclopropa[c]quinolin-7-yl)-1H-pyrazol-1-yl)methyl)benzamido)methanesulfonic acid], the EC50 rises from 35 nM to 55 nM (1.6-fold). The first is the more potent here.

`Cc1cccc(OCCCC(=O)N2CCCc3c(-c4cnn(Cc5cccc(N(C)C(=O)NCC[N+](C)(C)C)c5)c4)cccc32)c1C` [Example 471, 2-(3-(3-((4-(1-(4-(2,3-Dimethylphenoxy)butanoyl)-1,2,3,4-tetrahydroquinolin-5-yl)-1H-pyrazol-1-yl)methyl)phenyl)-3-methylureido)-N,N,N-trimethylethanaminium, TFA salt] and `Cc1cccc(OCCCC(=O)N2CCCc3c(-c4cnn(Cc5cccc(S(=O)(=O)N[C@@H](CCC[N+](C)(C)C)C(=O)O)c5)c4)cccc32)c1C` [Example 507, (S)-4-Carboxy-4-(3-((4-(1-(4-(2,3-dimethylphenoxy)butanoyl)-1,2,3,4-tetrahydroquinolin-5-yl)-1H-pyrazol-1-yl)methyl)phenyl-sulfonamido)-N,N, N-trimethylbutan-1-aminium] are within 1.5-fold of each other in EC50: 2170 nM for the first, 2110 nM for the second.

Compared with `CCOC(=O)CNC(=O)Nc1cccc(Cn2cc(-c3cccc4c3[C@H]3C[C@H]3CN4C(=O)CCCOc3cccc(Cl)c3C)cn2)c1` [Example 914, Ethyl 2-(3-(3-((4-((1aR,7bS)-3-(4-(3-chloro-2-methylphenoxy)butanoyl)-1a,2,3,7b-tetrahydro-1H-cyclopropa[c]quinolin-7-yl)-1H-pyrazol-1-yl)methyl)phenyl)ureido)acetate], `Cc1cccc(OCCCC(=O)N2C[C@@H]3C[C@@H]3c3c(-c4cnn(Cc5cccc(C(=O)NC[C@@H](N)C(=O)O)c5)c4)cccc32)c1C` [Example 887, (R)-2-Amino-3-(3-((4-((1aR,7bS )-3-(4-(2,3-dimethylphenoxy)butanoyl)-1a,2,3,7b-tetrahydro-1H-cyclopropa[c]quinolin-7-yl)-1H-pyrazol-1-yl)methyl)benzamido)propanoic acid] is 5.8-fold higher in EC50: 32 nM for the first, 184 nM for the second.

`Cc1cccc(OCCCC(=O)N2CCCc3c(-c4cnn(Cc5c(F)cc(C(=O)NCCC[C@H](NC(=N)N)C(=O)O)cc5Cl)c4)cccc32)c1C` [Example 171, (S)-5-(3-Chloro-4-((4-(1-(4-(2,3-dimethylphenoxy)butanoyl)-1,2,3,4-tetrahydroquinolin-5-yl)-1H-pyrazol-1-yl)methyl)-5-fluorobenzamido)-2-guanidinopentanoic acid, TFA salt] and `Cc1cccc(OCCCC(=O)N2CCSc3c(-c4cnn(Cc5c(F)cc(C(=O)NCCC(=O)O)cc5Cl)c4)cccc32)c1C` [Example 575, 3-(3-Chloro-4-((4-(4-(4-(2,3-dimethylphenoxy)butanoyl)-3,4-dihydro-2H-benzo[b][1,4]thiazin-8-yl)-1H-pyrazol-1-yl)methyl)-5-fluorobenzamido) propanoic acid] are within 1.5-fold of each other in EC50: 56 nM for the first, 49 nM for the second.

`Cc1c(Cl)cccc1OCCCC(=O)N1CCCOc2c(-c3cnn(Cc4c(F)cc(C(=O)NCC[N+](C)(C)C)cc4F)c3)cccc21` [Example 724, 2-(4-((4-(5-(4-(3-Chloro-2-methylphenoxy)butanoyl)-2,3,4,5-tetrahydrobenzo[b][1,4]oxazepin-9-yl)-1H-pyrazol-1-yl)methyl)-3,5-difluorobenzamido)-N,N,N-trimethylethanaminium, TFA salt] and `Cc1c(Cl)cccc1OC(C)(C)COC(=O)N1CCCOc2c(-c3cnn(Cc4c(F)cc(C(=O)NCCC(=O)O)cc4Cl)c3)cccc21` [Example 808, 3-(3-Chloro-4-((4-(5-((2-(3-chloro-2-methylphenoxy)-2-methylpropoxy)carbonyl)-2,3,4,5-tetrahydrobenzo[b][1,4]oxazepin-9-yl)-1H-pyrazol-1-yl)methyl)-5-fluorobenzamido)propanoic acid] are within 1.5-fold of each other in EC50: 1300 nM for the first, 1340 nM for the second.

Going from `Cc1cccc(OCCCC(=O)N2CCCc3c(-c4cnn(CC5(CNC(=O)NCCS(=O)(=O)O)CC5)c4)cccc32)c1C` [Example 69J, 2-(3-((1-((4-(1-(4-(2,3-Dimethylphenoxy)butanoyl)-1,2,3,4-tetrahydroquinolin-5-yl)-1H-pyrazol-1-yl)methyl)cyclopropyl)methyl)ureido)ethanesulfonic acid] to `Cc1cccc(OCCCC(=O)N2CC3CC3c3c(-c4cnn(Cc5c(F)cc(C(=O)NCS(=O)(=O)O)cc5Cl)c4)cccc32)c1C` (stereo not drawn) [Example 69B, (3-Chloro-4-((4-(3-(4-(2,3-dimethylphenoxy)butanoyl)-1a,2,3,7b-tetrahydro-1H-cyclopropa[c]quinolin-7-yl)-1H-pyrazol-1-yl)methyl)-5-fluorobenzamido)methanesulfonic acid], the EC50 falls from 5000 nM to 50 nM (100-fold).

Work on `Cc1cccc(OCCCC(=O)N2C[C@@H]3C[C@@H]3c3c(-c4cnn(Cc5cccc(C(=O)N(CC(=O)O)CC(=O)O)c5)c4)cccc32)c1C` [Example 882, 2,2′-(3-((4-((1aR,7bS)-3-(4-(2,3-Dimethylphenoxy)butanoyl)-1a,2,3,7b-tetrahydro-1H-cyclopropa[c]quinolin-7-yl)-1H-pyrazol-1-yl)methyl)benzoylazanediyl) diacetic acid] yielded an EC50 of 1340 nM.
